{"source": "patent US7638055B2", "about": "“Sludge quality” (Rhodia Operations, priority 2004, dated 2009)", "key": {"filamentous bacteria": {"tested_on": "filamentous bacteria", "settings": "for Observations (filamentous bacteria): sample 48 days after start up, magnification x220", "method": "Samples were taken from the semi-continuous reactors described in Example 1, 48 days after the start up of the trial.\nA sample of each of the Compound X concentrations tested in the reactors of Example 1 was evaluated in this test. Accordingly, samples with 2 and 4 milligrams per liter per day treatment of Compound X were tested, as well as a control with no treatment by Compound X.\nThe samples were observed through phase contrast microscope magnification×220."}, "[1]": {"tested_on": "filamentous bacteria in the sludge", "settings": "2 and 4 mg/l/day Compound X, flash mixing, vs untreated control, 52 day experiment", "source_text": "(§1) A series of semi-continuous chemostat reactors was constructed to simulate wastewater treatment processes.\n(§2) The central part of the equipment is the biological chemostat reactor 1. The reactor vessel 2 is made of glass, with an internal volume of 10 liters and is fitted with pH 3 and dissolved oxygen 4 sensors and an air sparge 5. This contains the sludge, which is, essentially, a mass of typical wastewater treatment microorganisms. The reactor operates at an ambient temperature (approximately 20° C.).\n(§3) Simulated wastewater 13 is contained in a separate vessel 6 and maintained at 4° C. to prevent microbial spoilage. It is transferred into the reactor via a supply line 7 and a peristaltic pump 8.\n(§4) A recirculating line 9 is provided on the reactor comprising a length of flexible silicone tubing and a peristaltic pump 10. The peristaltic pump extracts the sludge from the reactor into the recirculation line. The candidate water-soluble biocide is introduced into this line 9 through a needle 11, which is fed by a syringe pump 12. Using this system it is possible to achieve “flash mixing” which ensures rapid contact of the water-soluble biocide with the sludge microorganisms. […]\n(§5) Compound X was evaluated in the test. […] Two concentrations were evaluated: 2 and 4 milligrams per liter per day, as well as a control with no treatment by Compound X."}, "[2]": {"tested_on": "protozoans and other higher organisms", "settings": "2 and 4 mg/l/day Compound X, treated sludge relative to untreated", "source_text": "as §1, §2, §3, §4, §5"}}, "note": "Like-named read-outs stand apart in the source and are kept apart here."}
{"substance": "tetrakis(hydroxymethyl)phosphonium sulphate [Compound X]", "values": [{"measurement": "Observations (filamentous bacteria)", "setting": "filamentous bacteria; 2 mg/l/day", "value": "No filamentous bacteria present,"}, {"measurement": "Observations (filamentous bacteria)", "setting": "filamentous bacteria; 4 mg/l/day", "value": "No filamentous bacteria present,"}, {"measurement": "reduction of filamentous bacteria and sludge settling", "setting": "filamentous bacteria; two doses of 4 mg/l/day (4 mg/l dose on two consecutive days)", "value": "Reduction of filamentous bacteria and thus improved sludge settling"}, {"measurement": "level of filaments after treatment was stopped", "setting": "filamentous bacteria; two doses of 4 mg/l/day, without further treatment", "value": "remained low for more than one week"}, {"measurement": "filamentous bacteria in the sludge", "setting": "[1]", "value": "substantially absent"}, {"measurement": "concentration of protozoans and other higher organisms in the sludge", "setting": "[2]", "value": "significantly higher concentration of protozoans and other higher organisms"}]}
